Numbers after ± are expanded uncertainties.
Test: Molar enthalpy of transition or fusion
Conditions: Crystal; Adiabatic calorimetry

Compound: CC(C)COC(C)(C)C [isobutyl tert-butyl ether]
- Molar enthalpy of transition or fusion: 2.067 ± 0.012 kcal/mol
